The values below come from patent publication US12485132B2, “GPX4 inhibitors and senolytic compounds and uses thereof” (Rubedo Life Sciences, Inc., priority 2023, dated 2025).

What all share (assay type): cell-based
One experiment has as its system senescent HEPG2 cells. Description: Senescence assay: viability of senescent HEPG2 cells. To be noted: Homo sapiens, 24-72 hours incubation, viability by CellTiter-Glo or XTT, read-out: Absolute IC50 average HEPG2_SEN IC50. An outline of the steps: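 A549 and HEPG2 cells made senescent by sublethal chemotherapy (bleomycin, gemcitabine, doxorubicin or 5-fluorouridine) plus recovery, verified by low EdU and high SA-β-Gal. Ten-point duplicate dosing for 24-72 h; viability by CellTiter-Glo or XTT versus untreated cells; absolute IC50 from four-parameter Hill fit.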

In experiment [1] the test system is senescent normal human dermal fibroblasts. Description: Rescue of compound-induced cell death by ferrostatin-1 in senescent fibroblasts. Particulars: compounds at 1.11 μM, ferrostatin-1 at 0.375 and 6 μM; 24 hours; CellTiter-Glo. The source says: Cell death induced by ferroptosis-inducing agents can be characterized by rescuing the cellular response with radical trapping agents that prevent the accumulation of phospholipid hydroperoxides (Stockwell et al., Cell Chem Biol 2020 27 (4): 365-375). As such, ferrostatin-1 was identified as a potent inhibitor of ferroptosis for which a free radical trapping mechanism had been reported (Skouta et al., J Am Chem Soc 2014 136 (12): 4551-6; Zika et al., ACS Cent Sci. 2017 3 (3): 232-243; and Miotto et al., Redox Biol. 2020; 101328). To determine whether compounds 18 and 32 induce ferroptosis in senescent cells, normal human dermal fibroblasts were induced to undergo senescence by treatment with a sublethal concentration of chemotherapy (bleomycin sulfate), followed by a rest period without chemotherapy similarly to previous reports (Aoshiba et al., 2003 3:436-43). Cells were maintained in DMEM media (high glucose, 4 mM L-glutamine, no sodium pyruvate) supplemented with 10% heat-inactivated fetal bovine serum in a humidified incubator at 37° C. with 5% carbon dioxide and 5% oxygen. Cellular senescence was qualified by reduced EdU (5-ethynyl-2′-deoxyuridine) incorporation and increased SA-β-Gal (senescence-associated beta-galactosidase) staining compared to proliferating untreated cells. Senescent fibroblasts were plated into 96-well plates at a density of 10,000 cells per well. The next day, ferrostatin-1 was diluted in cell medium to reach a final concentration of 0.375 and 6 μM and was added to cells. Approximately 30 minutes after the addition of ferrostatin-1, compounds 18 and 32 at 1.11 μM, or the peptidyl transfer inhibitor puromycin at 10 μM were added to cells. Cells were incubated with the compounds for 24 hours, at which point viability was quantified using the CellTiter-Glo assay (Promega). The viability for treated cells was determined relative to untreated control cells.

Another experiment deals with senescent A549 cells. Put plainly: Senescence assay: viability of senescent A549 cells. To be noted: Homo sapiens, 24-72 hours incubation, viability by CellTiter-Glo or XTT, read-out: Absolute IC50 average A549_SEN IC50. Here is the method:
Cells were maintained in DMEM media (high glucose, 4 mM L-glutamine, no sodium pyruvate) supplemented with 10% fetal bovine serum in a humidified incubator at 37° C. with 5% carbon dioxide. Senescence was induced via treatment with a sublethal concentration of chemotherapy (bleomycin, gemcitabine, doxorubicin, 5-fluorouridine), followed by a rest period without chemotherapy similarly to what is reported by others in the field (e.g., Aoshiba et al., 2003 Eur Respir J 22:436-443). Senescence was qualified by low EdU (5-ethynyl-2′-deoxyuridine) incorporation and high SA-β-Gal (senescence-associated beta-galactosidase) staining compared to proliferating untreated cells. Senescent cells were plated into 96-well plates at a density of 5-15,000 cells/well. The next day, compounds were added in duplicate across ten different concentrations spanning roughly four Log10 units. Cells were incubated with the compounds for 24-72 hours, at which point viability was quantified using CellTiter-Glo (Promega) or XTT (R&D Systems). The viability for treated cells was determined relative to untreated control cells. The log of the compound concentration vs. normalized mean viability was fit to a four parameters Hill function with variable slope. The bottom was constrained to be greater than zero. The X mean value for Y=50 was interpolated to determine the absolute IC50. The results in Table 2 indicate that many of the compounds are active in cells and can induce a dose dependent decrease in the viability of senescent HEPG2 and A549 cells.

In a further experiment the target is T1, GPX4 (Homo sapiens, UniProt P36969).
T1 sequence (P36969 1-197): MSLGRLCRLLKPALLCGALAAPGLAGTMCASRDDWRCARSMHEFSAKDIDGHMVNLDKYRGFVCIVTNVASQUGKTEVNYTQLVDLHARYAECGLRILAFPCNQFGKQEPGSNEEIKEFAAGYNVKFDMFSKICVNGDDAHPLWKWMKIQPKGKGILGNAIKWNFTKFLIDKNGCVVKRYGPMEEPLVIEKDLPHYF
Description: Competitive binding to GPX4 in A549 cells with biotinylated analog, streptavidin pull-down. Also noted: host or cells: A549. Particulars: 2 μM for 2 hours before 2 μM compound 21 for 5 hours. Here is the method:
Binding of compounds 32 and 69 to the target protein GPX4 in cultured cells can be assessed by the use of biotinylated analogs such as compound 21 that retain their cellular activities. Cells or tissue simultaneously or sequentially exposed to compounds 32 and 69 and biotinylated analog 21 can be analyzed for exogenous biotinylated proteins and thereby enables the identification of cellular targets of compounds 32 and 69. The A549 cancer cell line (ATCC) was exposed to 2 μM of compounds 32 and 69 for 2 hours followed by the addition of 2 μM of compound 21 for 5 hours. Cells were collected and lysed by IGEPAL CA-630 and sodium dodecyl sulfate (SDS) in the presence of a protease inhibitor cocktail (4693132001, Roche). The soluble protein fraction was isolated and incubated with Streptavidin Mag Sepharose (28-9857-38, Cytiva) at 4° C. for 16 hours. The streptavidin-unbound fraction was collected allowing for the quantification of the proportion of GPX4 depleted by the biotinylated compound 21 relative to samples not treated with Streptavidin Mag Sepharose. Furthermore, biotinylated proteins were eluted from Streptavidin Mag Sepharose by head-denaturation in the presence of excess biotin (5 mM). […] Chemiluminescent following HRP substrate addition (34580, ThermoFisher) was detected by the ChemiDoc XRS+ System (Bio-Rad). […]

For `C#CC(F)(F)[C@]1(O)CC[C@H]2[C@@H]3CCC4=CC(=NOCCO)CCC4=C3[C@@H](c3ccc(C4CC4)cc3)C[C@@]21C` [Compound 18, (8S,11R,13S,14S,17S)-11-(4-cyclopropylphenyl)-17-(1,1-difluoroprop-2-yn-1-yl)-17-hydroxy-13-methyl-1,2,6,7,8,11,12,13,14,15,16,17-dodecahydro-3H-cyclopenta[a]phenanthren-3-one O-(2-hydroxyethyl)oxime], the IC50 in the experiment on senescent HEPG2 cells is 0.1 to 10 nM; in the experiment on senescent A549 cells it was 10 to 100 nM. Further, the “inhibition by ferrostatin-1 of compound-induced cell death” value in experiment [1] was “potently inhibits cell death induced by compounds 18 and 32”. Consider `CCOC(=O)c1ccc(NC2CCCCC2)c(N)c1` [ferrostatin-1, reference compound], for which the “inhibition by ferrostatin-1 of compound-induced cell death” value in experiment [1] is given as “potently inhibits cell death”. `C#CC(F)(F)[C@]1(O)CC[C@H]2[C@@H]3CCC4=C/C(=N/NC(=O)NC5CC5)CCC4=C3[C@@H](c3ccc(C4CC4)cc3)C[C@@]21C` [Compound 69, (E)-N-cyclopropyl-2-((8S,11R,13S,14S,17S)-11-(4-cyclopropylphenyl)-17-(1,1-difluoroprop-2-yn-1-yl)-17-hydroxy-13-methyl-1,2,6,7,8,11,12,13,14,15,16,17-dodecahydro-3H-cyclopenta[a]phenanthren-3-ylidene)hydrazine-1-carboxamide]: on GPX4, the “effect of pre-treatment on compound 21 dependent depletion of GPX4 protein” value is “reduces the compound 21 dependent depletion of GPX4 protein”.
